Source: ChEMBL document CHEMBL1240419, “Synthesis and antibacterial activity of 3-O-carbamoyl derivatives of 6,11-di-O-methylerythromycin A: a novel class of acylides” (2010)
Values after ≈ are worked out from the molar mass of the structure shown.

How the values were obtained:
Type in all cases: functional
[1] = tested on: Streptococcus pneumoniae; assay: Antibacterial activity against erythromycin-susceptible Streptococcus pneumoniae ATCC 49619 by broth microdilution method
[2] = tested on: Haemophilus influenzae; assay: Antibacterial activity against ampicillin-resistant Haemophilus influenzae 3300 by broth microdilution method
[3] = tested on: Streptococcus pneumoniae; assay: Antibacterial activity against erythromycin-resistant Streptococcus pneumoniae 3469 by broth microdilution method
[4] = tested on: Staphylococcus aureus; assay: Antibacterial activity against erythromycin, methicillin-resistant Staphylococcus aureus A333 by broth microdilution method
[5] = tested on: Staphylococcus aureus; assay: Antibacterial activity against erythromycin-susceptible Staphylococcus aureus ATCC 25923 by broth microdilution method
[6] = tested on: Staphylococcus aureus; assay: Antibacterial activity against erythromycin-resistant, methicillin-susceptible Staphylococcus aureus A265 by broth microdilution method
[7] = tested on: Haemophilus influenzae; assay: Antibacterial activity against ampicillin-susceptible Haemophilus influenzae ATCC 49247 by broth microdilution method

| SMILES | MIC [1] [µg/mL] | MIC [2] [µg/mL] | MIC [3] [µg/mL] | MIC [4] [µg/mL] | MIC [5] [µg/mL] | MIC [6] [µg/mL] | MIC [7] [µg/mL] |
| --- | --- | --- | --- | --- | --- | --- | --- |
| CCCNC(=O)O[C@H]1[C@H](C)[C@@H](O[C@@H]2O[C@H](C)C[C@H](N(C)C)[C@H]2O)[C@](C)(OC)C[C@@H](C)C(=O)[C@@H](C)[C@@H](OC)[C@](C)(O)[C@@H](CC)OC(=O)[C@@H]1C | 0.125 (≈ 0.181 µM) | 64 (≈ 92.9 µM) | 0.125 (≈ 0.181 µM) | > 64 | 2 (≈ 2.9 µM) | 1 (≈ 1.45 µM) | > 64 |
| CCCCNC(=O)O[C@H]1[C@H](C)[C@@H](O[C@@H]2O[C@H](C)C[C@H](N(C)C)[C@H]2O)[C@](C)(OC)C[C@@H](C)C(=O)[C@@H](C)[C@@H](OC)[C@](C)(O)[C@@H](CC)OC(=O)[C@@H]1C | 0.125 (≈ 0.178 µM) | 4 (≈ 5.69 µM) | 0.125 (≈ 0.178 µM) | > 64 | 1 (≈ 1.42 µM) | 1 (≈ 1.42 µM) | 4 (≈ 5.69 µM) |
| CCCCCNC(=O)O[C@H]1[C@H](C)[C@@H](O[C@@H]2O[C@H](C)C[C@H](N(C)C)[C@H]2O)[C@](C)(OC)C[C@@H](C)C(=O)[C@@H](C)[C@@H](OC)[C@](C)(O)[C@@H](CC)OC(=O)[C@@H]1C | 0.125 (≈ 0.174 µM) | 4 (≈ 5.58 µM) | 0.25 (≈ 0.349 µM) | > 64 | 2 (≈ 2.79 µM) | 4 (≈ 5.58 µM) | 4 (≈ 5.58 µM) |
| CC[C@H]1OC(=O)[C@H](C)[C@@H](OC(=O)NC2CCCCC2)[C@H](C)[C@@H](O[C@@H]2O[C@H](C)C[C@H](N(C)C)[C@H]2O)[C@](C)(OC)C[C@@H](C)C(=O)[C@@H](C)[C@@H](OC)[C@]1(C)O | 0.125 (≈ 0.171 µM) | 4 (≈ 5.49 µM) | 0.125 (≈ 0.171 µM) | > 64 | 8 (≈ 11 µM) | 2 (≈ 2.74 µM) | 4 (≈ 5.49 µM) |
| CC[C@H]1OC(=O)[C@H](C)[C@@H](OC(=O)NCCCOC)[C@H](C)[C@@H](O[C@@H]2O[C@H](C)C[C@H](N(C)C)[C@H]2O)[C@](C)(OC)C[C@@H](C)C(=O)[C@@H](C)[C@@H](OC)[C@]1(C)O | 0.125 (≈ 0.174 µM) | 16 (≈ 22.3 µM) | 0.125 (≈ 0.174 µM) | > 64 | 8 (≈ 11.1 µM) | 4 (≈ 5.56 µM) | 32 (≈ 44.5 µM) |
| CCOCCCNC(=O)O[C@H]1[C@H](C)[C@@H](O[C@@H]2O[C@H](C)C[C@H](N(C)C)[C@H]2O)[C@](C)(OC)C[C@@H](C)C(=O)[C@@H](C)[C@@H](OC)[C@](C)(O)[C@@H](CC)OC(=O)[C@@H]1C | 0.125 (≈ 0.171 µM) | 8 (≈ 10.9 µM) | 0.125 (≈ 0.171 µM) | > 64 | 8 (≈ 10.9 µM) | 8 (≈ 10.9 µM) | 8 (≈ 10.9 µM) |
| CC[C@H]1OC(=O)[C@H](C)[C@@H](OC(=O)NCCCOC(C)C)[C@H](C)[C@@H](O[C@@H]2O[C@H](C)C[C@H](N(C)C)[C@H]2O)[C@](C)(OC)C[C@@H](C)C(=O)[C@@H](C)[C@@H](OC)[C@]1(C)O | 0.5 (≈ 0.669 µM) | 32 (≈ 42.8 µM) | 8 (≈ 10.7 µM) | > 64 | 4 (≈ 5.35 µM) | 4 (≈ 5.35 µM) | 16 (≈ 21.4 µM) |
| CCCCOCCCNC(=O)O[C@H]1[C@H](C)[C@@H](O[C@@H]2O[C@H](C)C[C@H](N(C)C)[C@H]2O)[C@](C)(OC)C[C@@H](C)C(=O)[C@@H](C)[C@@H](OC)[C@](C)(O)[C@@H](CC)OC(=O)[C@@H]1C | 2 (≈ 2.63 µM) | 64 (≈ 84.1 µM) | > 64 | > 64 | 4 (≈ 5.26 µM) | 16 (≈ 21 µM) | 32 (≈ 42 µM) |
| CC[C@H]1OC(=O)[C@H](C)[C@@H](OC(=O)NCCCO)[C@H](C)[C@@H](O[C@@H]2O[C@H](C)C[C@H](N(C)C)[C@H]2O)[C@](C)(OC)C[C@@H](C)C(=O)[C@@H](C)[C@@H](OC)[C@]1(C)O | 1 (≈ 1.42 µM) | 32 (≈ 45.4 µM) | 8 (≈ 11.3 µM) | > 64 | 4 (≈ 5.67 µM) | 16 (≈ 22.7 µM) | 32 (≈ 45.4 µM) |
| CC[C@H]1OC(=O)[C@H](C)[C@@H](OC(=O)NCc2ccco2)[C@H](C)[C@@H](O[C@@H]2O[C@H](C)C[C@H](N(C)C)[C@H]2O)[C@](C)(OC)C[C@@H](C)C(=O)[C@@H](C)[C@@H](OC)[C@]1(C)O | 0.5 (≈ 0.688 µM) | 2 (≈ 2.75 µM) | 16 (≈ 22 µM) | > 64 | 2 (≈ 2.75 µM) | 1 (≈ 1.38 µM) | 2 (≈ 2.75 µM) |
| CC[C@H]1OC(=O)[C@H](C)[C@@H](OC(=O)Nc2nccs2)[C@H](C)[C@@H](O[C@@H]2O[C@H](C)C[C@H](N(C)C)[C@H]2O)[C@](C)(OC)C[C@@H](C)C(=O)[C@@H](C)[C@@H](OC)[C@]1(C)O | 0.125 (≈ 0.171 µM) | 32 (≈ 43.8 µM) | 8 (≈ 11 µM) | > 64 | 32 (≈ 43.8 µM) | 32 (≈ 43.8 µM) | 32 (≈ 43.8 µM) |
| CC[C@H]1OC(=O)[C@H](C)[C@@H](OC(=O)NCc2ccccc2)[C@H](C)[C@@H](O[C@@H]2O[C@H](C)C[C@H](N(C)C)[C@H]2O)[C@](C)(OC)C[C@@H](C)C(=O)[C@@H](C)[C@@H](OC)[C@]1(C)O | 0.125 (≈ 0.17 µM) | 4 (≈ 5.43 µM) | 0.125 (≈ 0.17 µM) | > 64 | 2 (≈ 2.71 µM) | 0.125 (≈ 0.17 µM) | 8 (≈ 10.9 µM) |
